Laboratory results: patent publication US11464763B2, “Parasiticidal compositions comprising an isoxazoline active agent, methods and uses thereof” (BOEHRINGER INGELHEIM ANIMAL HEALTH USA INC., priority 2011, dated 2022)

How the values were obtained:
Type in all cases: in vivo
[1] = test system: Rhipicephalus (Boophilus) microplus; assay: Pour-on tick count efficacy against Rhipicephalus (Boophilus) microplus in cattle (Example 15)
Experimental: (§1) The efficacy of two pour-on formulations of the invention comprising Compound A at doses of 2.5 mg/kg and 10 mg/kg were tested against infestations of Rhipicephalus (Boophilus) microplus ticks compared with an untreated control. Five healthy head of cattle of 6 to 15 months of age weighing between 100 to 200 kg were used in each study group. Cattle in Group 1 were untreated (control). Cattle in Group 2 were treated on Day 0 with a pour-on formulation comprising Compound A at a concentration of 2.5% (w/v) in DES at a dose of 2.5 mg/kg; and cattle in Group 3 were treated on Day 0 with a pour-on formulation comprising Compound A at a concentration of 10% (w/v) in DES at a dose of 10 mg/kg. Several weeks before treatment, cattle are infested three times a week with approximately 2500 Rhipicephalus (Boophilus) microplus larvae to establish ongoing infestations. Cattle in Groups 2 and 3 were treated with the respective compositions on Day 0 by measuring the required amount of the solution into a marked disposable syringe and applying the material evenly along the mid-line of the back of each animal from the withers to the tail head.
(§2) Each animal was challenged by infestation with approximately 5000 R. microplus larvae on Days 7 and 21 and every 14 days thereafter. Ticks dropping from each animal in the previous 24 hours were collected daily and counted from Day 1 until the end of the study. Since the life cycle of the ticks from the point of infestation with larvae until engorged ticks fall off is approximately 21 days (average), the assessment of efficacy for the challenges on Days 7 and 21 and every 14 days thereafter, was done for a range of 7 or 8 days starting approximately 21 days after the challenge. The assessment of efficacy at the beginning of the study was done from day 1 until Day 21.
(§3) In addition, the ticks collected were weighed as a group to measure the impact of the treatment on the weight gain of the ticks compared to the control to assess the vitality and reproductive capability of the treated ticks. […] Tables 16A and 16B show the % efficacy of the two pour-on formulations based on the weight of the ticks collected. […] As evidenced from the tables and the figures, the pour-on formulations of the invention at both 2.5 mg/kg and 10 mg/kg provide excellent efficacy against Rhipicephalus (Boophilus) microplus ticks for an extended period of time. […] Furthermore, as shown in Tables 16A and 16B, the two pour-on compositions were extremely effective against ticks based on the weight of the ticks collected. […] The extremely long lasting efficacy above 90% for pour-on composition against Rhipicephalus (Boophilus) microplus ticks is remarkable compared with pour-on formulations known in the art.

[2] = test system: Rhipicephalus (Boophilus) microplus; assay: Pour-on tick weight efficacy against Rhipicephalus (Boophilus) microplus in cattle (Example 15)
Experimental: as §1, §2, §3

Rhipicephalus sanguineus = assay: Spot-on efficacy against Rhipicephalus sanguineus ticks in dogs, three DES formulations (Example 6); conditions: for % Reduction: 48 h count
Experimental: A further study was conducted to examine the efficacy of a topical formulations comprising Compound A in three different formulations containing DES against ticks in dogs. Twenty-four beagles were studied to determine the effectiveness against induced infestations of Rhipicephalus sanguineus of spot-on formulations comprising Cmpd. A in different carriers administered at 4.0 mg/kg to dogs.
Treatment Group 1 dogs were treated with a placebo solution. Treatment Group 2 was treated with a formulation comprising 6% (w/v) Cmpd. A in DES; Treatment Group 3 were treated with a composition comprising 6% (w/v) Cmpd. A in 40% DES/DMI; and Treatment Group 4 were treated with a formulation comprising 6% (w/v) Cmpd. A in DES with 30% Capryol 90. All dogs were treated once topically on Day 0. Topical solutions were applied by parting the hair and applying the solution from a syringe directly onto the skin in a single spot on the midline of the neck between the base of the skull and the shoulder blades.
All dogs were infested with approximately 50 R. sanguineus on Days −1, 7, 14, 21, 28, 35 and 42. Ticks were counted upon removal from dogs on Days 2, 9, 16, 23, 30, 37, and 44. All ticks were counted upon removal at 48 (±3) hours post treatment or infestation.
The percent efficacies of the treated groups compared to the untreated control group were determined for the 48 hour post-treatment/infestation counts. Treatment Group 3 maintained ≥90% efficacy 48 hours after infestation at every sampling time from Day 9 through Day 44. Treatment Group 2 was able to maintain at least 90% efficacy 48 hours after infestation throughout the six weeks of the study.

[3] = Group 2: pour-on 2.5% (w/v) in DES, 2.5 mg/kg, Day 1-21
[4] = Group 2: pour-on 2.5% (w/v) in DES, 2.5 mg/kg, Day 28-34, Challenge Day 7
[5] = Group 2: pour-on 2.5% (w/v) in DES, 2.5 mg/kg, Day 41-48, Challenge Day 21
[6] = Group 2: pour-on 2.5% (w/v) in DES, 2.5 mg/kg, Day 55-62, Challenge Day 35
[7] = Group 2: pour-on 2.5% (w/v) in DES, 2.5 mg/kg, Day 69-76, Challenge Day 49
[8] = Group 2: pour-on 2.5% (w/v) in DES, 2.5 mg/kg, Day 83-90, Challenge Day 63
[9] = Group 2: pour-on 2.5% (w/v) in DES, 2.5 mg/kg, Day 97-104, Challenge Day 77
[10] = Group 2: pour-on 2.5% (w/v) in DES, 2.5 mg/kg, Day 111-118, Challenge Day 91
[11] = Group 2: pour-on 2.5% (w/v) in DES, 2.5 mg/kg, Day 132-139, Challenge Day 112
[12] = Group 2: pour-on 2.5% (w/v) in DES, 2.5 mg/kg, Day 146-153, Challenge Day 126
[13] = Group 2: pour-on 2.5% (w/v) in DES, 2.5 mg/kg, Day 160-167, Challenge Day 140
[14] = Group 3: pour-on 10% (w/v) in DES, 10 mg/kg, Day 1-21
[15] = Group 3: pour-on 10% (w/v) in DES, 10 mg/kg, Day 28-34, Challenge Day 7
[16] = Group 3: pour-on 10% (w/v) in DES, 10 mg/kg, Day 41-48, Challenge Day 21
[17] = Group 3: pour-on 10% (w/v) in DES, 10 mg/kg, Day 55-62, Challenge Day 35
[18] = Group 3: pour-on 10% (w/v) in DES, 10 mg/kg, Day 69-76, Challenge Day 49
[19] = Group 3: pour-on 10% (w/v) in DES, 10 mg/kg, Day 83-90, Challenge Day 63
[20] = Group 3: pour-on 10% (w/v) in DES, 10 mg/kg, Day 97-104, Challenge Day 77
[21] = Group 3: pour-on 10% (w/v) in DES, 10 mg/kg, Day 111-118, Challenge Day 91
[22] = Group 3: pour-on 10% (w/v) in DES, 10 mg/kg, Day 132-139, Challenge Day 112
[23] = Group 3: pour-on 10% (w/v) in DES, 10 mg/kg, Day 146-153, Challenge Day 126
[24] = Group 3: pour-on 10% (w/v) in DES, 10 mg/kg, Day 160-167, Challenge Day 140

## O=C(CNC(=O)c1ccc(C2=NOC(c3cc(Cl)cc(C(F)(F)F)c3)(C(F)(F)F)C2)c2ccccc12)NCC(F)(F)F (centres unmarked) [Compound A, 4-[5-[3-chloro-5-(trifluoromethyl)phenyl]-4,5-dihydro-5-(trifluoromethyl)-3-isoxazolyl]-N-[2-oxo-2-[(2,2,2-trifluoroethyl)amino]ethyl]-1-naphthalanecarboxamide]
[1]; [3]
  Average % Efficacy (Tick Count): 58.8%
[1]; [4]
  Average % Efficacy (Tick Count): 75.6%
[1]; [5]
  Average % Efficacy (Tick Count): 77.0%
[1]; [6]
  Average % Efficacy (Tick Count): 91.2%
[1]; [7]
  Average % Efficacy (Tick Count): 88.3%
[1]; [8]
  Average % Efficacy (Tick Count): 90.7%
[1]; [9]
  Average % Efficacy (Tick Count): 79.8%
[1]; [10]
  Average % Efficacy (Tick Count): 79.0%
[1]; [11]
  Average % Efficacy (Tick Count): 86.2%
[1]; [12]
  Average % Efficacy (Tick Count): 30.3%
[1]; [13]
  Average % Efficacy (Tick Count): 74.0%
[1]; [14]
  Average % Efficacy (Tick Count): 78.1%
[1]; [15]
  Average % Efficacy (Tick Count): 92.0%
[1]; [16]
  Average % Efficacy (Tick Count): 98.0%
[1]; [17]
  Average % Efficacy (Tick Count): 97.8%
[1]; [18]
  Average % Efficacy (Tick Count): 99.3%
[1]; [19]
  Average % Efficacy (Tick Count): 98.9%
[1]; [20]
  Average % Efficacy (Tick Count): 92.4%
[1]; [21]
  Average % Efficacy (Tick Count): 96.6%
[1]; [22]
  Average % Efficacy (Tick Count): 92.4%
[1]; [23]
  Average % Efficacy (Tick Count): 72.4%
[1]; [24]
  Average % Efficacy (Tick Count): 85.8%
[1]; pour-on 2.5 mg/kg and 10 mg/kg, for at least day 139
  tick count efficacy: above 90%
[2]; [3]
  Average % Efficacy (Tick Weight): 69.1%
[2]; [4]
  Average % Efficacy (Tick Weight): 81.8%
[2]; [5]
  Average % Efficacy (Tick Weight): 72.9%
[2]; [6]
  Average % Efficacy (Tick Weight): 87.7%
[2]; [7]
  Average % Efficacy (Tick Weight): 84.8%
[2]; [8]
  Average % Efficacy (Tick Weight): 87.4%
[2]; [9]
  Average % Efficacy (Tick Weight): 76.0%
[2]; [10]
  Average % Efficacy (Tick Weight): 74.0%
[2]; [11]
  Average % Efficacy (Tick Weight): 83.2%
[2]; [12]
  Average % Efficacy (Tick Weight): 20.6%
[2]; [13]
  Average % Efficacy (Tick Weight): 63.4%
[2]; [14]
  Average % Efficacy (Tick Weight): 85.4%
[2]; [15]
  Average % Efficacy (Tick Weight): 95.2%
[2]; [16]
  Average % Efficacy (Tick Weight): 98.3%
[2]; [17]
  Average % Efficacy (Tick Weight): 96.6%
[2]; [18]
  Average % Efficacy (Tick Weight): 99.2%
[2]; [19]
  Average % Efficacy (Tick Weight): 98.6%
[2]; [20]
  Average % Efficacy (Tick Weight): 90.2%
[2]; [21]
  Average % Efficacy (Tick Weight): 96.0%
[2]; [22]
  Average % Efficacy (Tick Weight): 92.4%
[2]; [23]
  Average % Efficacy (Tick Weight): 61.4%
[2]; [24]
  Average % Efficacy (Tick Weight): 76.3%
Rhipicephalus sanguineus; Group 2: 6% in DES, 4.0 mg/kg, Day 2
  % Reduction: 93.2%
Rhipicephalus sanguineus; Group 2: 6% in DES, 4.0 mg/kg, Day 9
  % Reduction: 100.0%
Rhipicephalus sanguineus; Group 2: 6% in DES, 4.0 mg/kg, Day 16
  % Reduction: 100.0%
Rhipicephalus sanguineus; Group 2: 6% in DES, 4.0 mg/kg, Day 23
  % Reduction: 100.0%
Rhipicephalus sanguineus; Group 2: 6% in DES, 4.0 mg/kg, Day 30
  % Reduction: 97.8%
Rhipicephalus sanguineus; Group 2: 6% in DES, 4.0 mg/kg, Day 37
  % Reduction: 95.3%
Rhipicephalus sanguineus; Group 2: 6% in DES, 4.0 mg/kg, Day 44
  % Reduction: 97.5%
Rhipicephalus sanguineus; Group 3: 6% in 40% DES/DMI, 4.0 mg/kg, Day 2
  % Reduction: 72.8%
Rhipicephalus sanguineus; Group 3: 6% in 40% DES/DMI, 4.0 mg/kg, Day 9
  % Reduction: 100.0%
Rhipicephalus sanguineus; Group 3: 6% in 40% DES/DMI, 4.0 mg/kg, Day 16
  % Reduction: 100.0%
Rhipicephalus sanguineus; Group 3: 6% in 40% DES/DMI, 4.0 mg/kg, Day 23
  % Reduction: 100.0%
Rhipicephalus sanguineus; Group 3: 6% in 40% DES/DMI, 4.0 mg/kg, Day 30
  % Reduction: 100.0%
Rhipicephalus sanguineus; Group 3: 6% in 40% DES/DMI, 4.0 mg/kg, Day 37
  % Reduction: 93.5%
Rhipicephalus sanguineus; Group 3: 6% in 40% DES/DMI, 4.0 mg/kg, Day 44
  % Reduction: 82.9%
Rhipicephalus sanguineus; Group 4: 6% in DES with 30% Capryol 90, 4.0 mg/kg, Day 2
  % Reduction: 97.2%
Rhipicephalus sanguineus; Group 4: 6% in DES with 30% Capryol 90, 4.0 mg/kg, Day 9
  % Reduction: 100.0%
Rhipicephalus sanguineus; Group 4: 6% in DES with 30% Capryol 90, 4.0 mg/kg, Day 16
  % Reduction: 100.0%
Rhipicephalus sanguineus; Group 4: 6% in DES with 30% Capryol 90, 4.0 mg/kg, Day 23
  % Reduction: 100.0%
Rhipicephalus sanguineus; Group 4: 6% in DES with 30% Capryol 90, 4.0 mg/kg, Day 30
  % Reduction: 98.4%
Rhipicephalus sanguineus; Group 4: 6% in DES with 30% Capryol 90, 4.0 mg/kg, Day 37
  % Reduction: 96.1%
Rhipicephalus sanguineus; Group 4: 6% in DES with 30% Capryol 90, 4.0 mg/kg, Day 44
  % Reduction: 78.1%
Rhipicephalus sanguineus; Treatment Group 2, throughout the six weeks of the study
  efficacy 48 hours after infestation: ≥ 90%
Rhipicephalus sanguineus; Treatment Group 3, Day 9 through Day 44
  efficacy 48 hours after infestation: ≥ 90%
